Results published in patent US20240174618A1, “SUBSTITUTED (2-HETEROARYLOXYPHENYL)SULFONATES, SALTS THEREOF AND THEIR USE AS HERBICIDAL AGENTS” (Bayer Aktiengesellschaft, priority 2021, published 2024).

Assays:
Format in all cases: in vivo
[1] = test system: Alopecurus myosuroides (ALOMY); experiment: A. Herbicidal pre-emergence efficacy, ALOMY; details: 1280 g/ha; scored visually after about 3 weeks vs untreated controls
How it was run: (§1)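 Pre-emergence soil-surface spray in sandy loam pots, WP/EC in water plus 0.5% additive, 600 L/ha. Visual % damage rating after about 3 weeks in greenhouse vs. untreated; 0% = control-like, 100% = dead plants. Rates up to 1280 g/ha.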

[2] = test system: Digitaria sanguinalis (DIGSA); experiment: A. Herbicidal pre-emergence efficacy, DIGSA; details: scored visually after about 3 weeks vs untreated controls
How it was run: as §1

Lolium rigidum (LOLRI) = experiment: A. Herbicidal pre-emergence efficacy, LOLRI
How it was run: as §1

[3] = test system: Matricaria inodora (MATIN); experiment: A. Herbicidal pre-emergence efficacy, MATIN; details: pre-emergence, dosage 1280 g/ha
How it was run: as §1

[4] = test system: Amaranthus retroflexus (AMARE); experiment: A. Herbicidal pre-emergence efficacy, AMARE
How it was run: as §1

Kochia scoparia (KCHSC) [5] = experiment: B. Herbicidal post-emergence efficacy, KCHSC; details: for Post-emergence efficacy against KCHSC in %: rated visually after about 3 weeks; for Post-emergence efficacy against KCHSC: 1280 g/ha
How it was run: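 First, seeds were sown in sandy loam and grown 2 to 3 weeks under controlled greenhouse conditions. Next, foliage at the one-leaf stage received the formulated compound in water with 0.5% additive (600 L/ha, 1280 g/ha or less). Finally, damage was rated visually after about 3 weeks against untreated plants.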

Kochia scoparia (KCHSC) [6] = experiment: E. Herbicidal post-emergence efficacy, KCHSC
How it was run: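 Greenhouse weeds were treated post-emergence at the one-leaf stage, 2-3 weeks after sowing in sandy loam, with WP or EC formulations sprayed as aqueous suspension/emulsion plus 0.5% additive at 600 l/ha, at 320 g/ha or less. Efficacy was rated visually after about 3 weeks versus untreated controls (100% = dead, 0% = like control).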

| Compound | Pre-emergence efficacy against ALOMY [1] [%] | Pre-emergence efficacy against DIGSA ([2]; 80 g/ha) [%] | Pre-emergence efficacy against DIGSA ([2]; 320 g/ha) [%] | Pre-emergence efficacy against DIGSA ([2]; 1280 g/ha) [%] | Pre-emergence efficacy against LOLRI (Lolium rigidum (LOLRI); dosage 320 g/ha) [%] | Pre-emergence efficacy against LOLRI (Lolium rigidum (LOLRI); dosage 1280 g/ha) [%] | Pre-emergence efficacy against MATIN [3] [%] | Pre-emergence efficacy against AMARE in % ([4]; 80 g/ha) [%] | Pre-emergence efficacy against AMARE in % ([4]; 320 g/ha) [%] | Pre-emergence efficacy against AMARE in % ([4]; 1280 g/ha) [%] | Post-emergence efficacy against KCHSC in % (Kochia scoparia (KCHSC) [5]; 320 g/ha) [%] | Post-emergence efficacy against KCHSC (Kochia scoparia (KCHSC) [5]) [%] | Post-emergence efficacy against KCHSC in % (Kochia scoparia (KCHSC) [5]; 80 g/ha) [%] | Post-emergence efficacy against KCHSC in % (Kochia scoparia (KCHSC) [6]; application rate 80 g/ha) [%] | Post-emergence efficacy against KCHSC in % (Kochia scoparia (KCHSC) [6]; application rate 320 g/ha) [%] |
| --- | --- | --- | --- | --- | --- | --- | --- | --- | --- | --- | --- | --- | --- | --- | --- |
| Cc1cccc(Oc2ncc(Cl)cn2)c1OS(=O)(=O)CCCC(F)(F)F [Example I-28, 2-[(5-Chloropyrimidin-2-yl)oxy]-6-methylphenyl 4,4,4-trifluorobutane-1-sulfonate] | 100 | 90 | 100 | 100 | 90 | 100 | 100 | 100 | 100 | 100 | 90 | 100 | – | – | – |
| Cc1cccc(Oc2ncc(Cl)cn2)c1OS(=O)(=O)CCC(F)(F)F [Example I-29] | 90 | 90 | 100 | 100 | 100 | 100 | 90 | 90 | 100 | 100 | 100 | 100 | – | – | – |
| O=S(=O)(CCCC(F)(F)F)Oc1c(Br)cccc1Oc1ncc(Cl)cn1 [Example I-30] | – | – | 100 | 100 | 90 | 100 | 100 | 100 | 100 | 100 | 100 | 100 | 100 | – | – |
| O=S(=O)(CCC(F)(F)F)Oc1c(Br)cccc1Oc1ncc(Cl)cn1 [Example I-31] | 90 | – | 90 | 100 | – | 100 | 90 | 100 | 100 | 100 | 100 | 100 | 90 | – | – |
| O=S(=O)(CCCC(F)(F)F)Oc1c(Cl)cccc1Oc1ncc(Br)cn1 [Example I-34] | – | – | – | 90 | – | – | – | 90 | 90 | 100 | 100 | 100 | 100 | 100 | 100 |
| C=CCS(=O)(=O)Oc1ccccc1Oc1ncc(Cl)cn1 [Example I-36] | – | – | 90 | 100 | – | 100 | – | – | 100 | 100 | – | 90 | – | – | 90 |
| Cc1cccc(Oc2ncc(Cl)cn2)c1OS(=O)(=O)CC1CC(F)(F)C1 [Example I-74] | 90 | – | 100 | 100 | – | 100 | – | 90 | 100 | 100 | 100 | 100 | 90 | – | 80 |
